Data on three compounds can be found in PMC8906456, “Structural insights into the catalytic and inhibitory mechanisms of the flavin transferase FmnB in Listeria monocytogenes” (MedComm, 2022).

The target in this assay is T1, FmnB (Listeria monocytogenes, UniProt A0A0H3GJF7).
T1 construct: gene LMRG_02181; structure covers about residues 36-357
T1 sequence (A0A0H3GJF7 20-360): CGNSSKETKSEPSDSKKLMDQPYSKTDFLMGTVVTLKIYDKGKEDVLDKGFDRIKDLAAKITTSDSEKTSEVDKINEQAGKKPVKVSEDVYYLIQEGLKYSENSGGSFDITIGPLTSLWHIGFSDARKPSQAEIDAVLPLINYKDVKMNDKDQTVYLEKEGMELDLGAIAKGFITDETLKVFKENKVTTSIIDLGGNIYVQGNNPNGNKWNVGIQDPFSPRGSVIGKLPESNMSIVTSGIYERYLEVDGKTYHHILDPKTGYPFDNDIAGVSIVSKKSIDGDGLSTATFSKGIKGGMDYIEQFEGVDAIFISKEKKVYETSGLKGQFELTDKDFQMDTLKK
The experiment in a line: inhibition of PplA FMNylation, in-gel flavin fluorescence. In kind it is biochemical. Conditions: 10 uM to 4 mM inhibitor; 100 uM FAD, 50 uM PplA, 15 mM Mg2+, 16 °C; competitive.
With `Nc1ncnc2c1ncn2[C@@H]1O[C@H](COP(=O)(O)OP(=O)(O)O)[C@@H](O)[C@H]1O` [ADP], the “inhibition of PplA FMNylation, in-gel flavin fluorescence” value (shortened to “inhibition of PplA FMNylation”) is recorded as “ADP demonstrated a much stronger inhibitory ability against FmnB activity (Figure 4A)”. Consider `Nc1ncnc2c1ncn2[C@@H]1O[C@H](COP(=O)(O)O)[C@@H](O)[C@H]1O` [AMP], for which the “inhibition of PplA FMNylation” value is “the enzymatic assays indicated that AMP, ADP and ATP could inhibit FmnB activity”.

Turning to `Nc1ncnc2c1ncn2[C@@H]1O[C@H](COP(=O)(O)OP(=O)(O)OP(=O)(O)O)[C@@H](O)[C@H]1O` [ATP], the “inhibition of PplA FMNylation” value is “the enzymatic assays indicated that AMP, ADP and ATP could inhibit FmnB activity”.
